Measured values from patent publication US7205302B2, “Heterocyclic compound derivatives and medicines” (Nippon Shinyaku Co., Ltd., priority 2001, dated 2007).
Structures can show the parent of a compound that is named as a salt. Where two headings read alike, the source gives them in different places.

Legend:
mice = assay: Single-dose toxicity test in mice; format: in vivo; conditions: oral, 10, 30 or 100 mg/kg
Protocol: Singl-Dose Toxicity Test in Mice
The compound of Example 42 was orally administered to mice (including three mice in a group) at a dose of 10, 30 or 100 mg/kg.

[1] = test system: ADP-induced platelet aggregation in human PRP; assay: Human platelet aggregation inhibition test; format: cell-based; conditions: ADP 1×10^−5 M
Protocol: Human Platelet Aggregation Inhibition Test
Blood collected from healthy human volunteers into aqueous trisodium citrate solution was centrifuged at 200×g for 10 minutes and the upper layer was recovered to obtain platelet-rich plasma (PRP). The residual blood containing trisodium citrate added therein was centrifuged at 1500×g for 10 minutes and the supernatant was collected as platelet-poor plasma (PPP). The number of platelets in the PRP was adjusted to about 300,000/μl by PPP. Platelet aggregation was measured by an aggregometer. 180 μl of PRP was added to cuvettes and incubated at 37° C. for one minute, and then 10 μl of test compound solution (prepared by dissolving a test compound with a 1.5-fold mole of a sodium hydroxide solution and diluting with water) was added and the mixture was further incubated for 2 minutes. Then, 10 μl of aqueous adenosine diphosphate (ADP) solution was added to adjust the final concentration as 1×10^−5 M and platelet aggregation was induced and observed for 7 minutes. Inhibition percentage of aggregation was calculated from the percentage of aggregation upon the addition of the test compound to the percentage of aggregation upon the addition of water in place of the test compound solution (control).

[2] = molecular target: T1, PGI2 receptor (human platelet membrane, 3H-Iloprost binding) (Homo sapiens, UniProt P43119); assay: 3H-Iloprost binding inhibition test to human platelet membrane; conditions: compound 1 μM, 5 nM 3H-Iloprost, 37° C., 10 minutes
T1 construct: Human platelet membrane of 100 μg protein was suspended; from tissue; host or cells: human platelet membrane
Protocol: ^3H-Iloprost Binding Inhibition Test to Human Platelet Membrane
The platelet membrane was collected on a glass filter and its radioactivity was measured after washing four times with 50 mM Tris-HCl buffer.

[3] = test system: ADP-induced platelet aggregation in monkey PRP; assay: Ex vivo platelet aggregation inhibition test in monkeys; set-up: species or system cynomolgus monkeys (Macaca fascicularis); conditions: for inhibition at 0.3 mg/kg / inhibition at 1 mg/kg: Macaca fascicularis, Platelet, read-out: Inhibition percentage of platelet aggregation in monkeys; for inhibition at 0.3 mg/kg: oral 0.3 mg/kg; for inhibition at 1 mg/kg: oral 1 mg/kg
Protocol: Ex Vivo Platelet Aggregation Inhibition Test in Monkeys
The compound of Example 84 was orally administered to two cynomolgus monkeys (Macaca fascicularis, male, aged 3 to 5) at a dose of 0.3 or 1 mg/kg. Before the administration or 2, 4 and 8 hours after the administration, blood (each 4.5 ml) was collected using an injection cylinder containing aqueous 3.8% citric acid solution in the amount of 1/10 of the volume of blood to be collected. Blood containing citric acid solution was centrifuged at 200×g for 10 minutes and the upper layer was collected as PRP. Furthermore, the residual blood was centrifuged at 1500×g for 10 minutes and the supernatant was collected as PPP. 190 μl of PRP was added to a cuvette and incubated at 37° C. for one minute, and then 10 μl of ADP solution (5 to 30 μM) was added to induce platelet aggregation. The percentage of platelet aggregation was measured by an aggregometer (PM8C, Mebanix, Tokyo) using PPP as the blank and inhibition percentage of platelet aggregation was determined by comparing the percentage of aggregation before administration of the compound with the percentage of aggregation after administration of the compound according to the following equation. Inhibition percentage of Platelet Aggregation (%)=100−(The percentage of Aggregation after administration of compound)/(The percentage of Aggregation before administration of compound)×100

T1 sequence (P43119 whole entry): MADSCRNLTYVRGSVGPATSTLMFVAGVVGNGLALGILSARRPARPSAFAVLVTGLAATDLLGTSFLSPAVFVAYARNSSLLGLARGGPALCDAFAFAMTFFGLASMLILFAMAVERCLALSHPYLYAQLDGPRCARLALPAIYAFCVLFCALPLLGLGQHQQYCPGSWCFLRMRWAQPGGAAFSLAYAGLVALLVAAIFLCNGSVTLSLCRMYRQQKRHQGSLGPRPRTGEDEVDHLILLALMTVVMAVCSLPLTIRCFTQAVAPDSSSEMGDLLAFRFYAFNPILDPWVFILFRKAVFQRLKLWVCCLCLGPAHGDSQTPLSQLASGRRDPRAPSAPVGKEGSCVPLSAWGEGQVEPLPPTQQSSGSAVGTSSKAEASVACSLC

melting point | SMILES | IC50 [1] [nM] | other results
– | CC(C)N(CCCCOCC(=O)O)c1cnc(-c2ccccc2)c(-c2ccccc2)n1 [Example 42, 2-{4-[N-(5,6-diphenylpyrazin-2-yl)-N-isopropylamino]butyloxy}acetic acid] | 200 | deaths after single oral dose (mice): no deaths
– | CN(CCCCOCC(=O)O)c1ccc(-c2ccccc2)c(-c2ccccc2)n1 [Example 46, 2-{4-[N-(5,6-diphenylpyridin-2-yl)-N-methylamino]butyloxy}acetic acid sodium salt] | 500 | –
– | CN(CCCCOCC(=O)O)c1cnc(-c2ccccc2)c(-c2ccccc2)n1 [Example 64, 2-{4-[N-(5,6-diphenylpyrazin-2-yl)-N-methylamino]butyloxy}acetic acid] | – | inhibition of binding of 3H-Iloprost [2]: 85%
114 to 118 °C | CN(CCCCCCC(=O)O)c1cnc(-c2ccccc2)c(-c2ccccc2)n1 [Example 65, 7-[N-(5,6-diphenylpyrazin-2-yl)-N-methylamino]heptanoic acid] | – | –
116 to 117 °C | CN(CCCCCCCC(=O)O)c1cnc(-c2ccccc2)c(-c2ccccc2)n1 [Example 66, 8-[N-(5,6-diphenylpyrazin-2-yl)-N-methylamino]octanoic acid] | – | –
103 to 105 °C | CN(CCCCCCCCC(=O)O)c1cnc(-c2ccccc2)c(-c2ccccc2)n1 [Example 67, 9-[N-(5,6-diphenylpyrazin-2-yl)-N-methylamino]nonanoic acid] | – | –
159 to 160 °C | CN(CCCCCC(=O)O)c1cnc(-c2ccccc2)c(-c2ccccc2)n1 [Example 68, 6-[N-(5,6-diphenylpyrazin-2-yl)-N-methylamino]hexanoic acid] | – | –
148 to 150 °C | CN(C/C=C\COCC(=O)O)c1cnc(-c2ccccc2)c(-c2ccccc2)n1 [Example 71, 2-{4-[N-(5,6-diphenylpyrazin-2-yl)-N-methylamino]-(Z)-2-buten-1-yloxy]acetic acid] | – | –
128 to 130 °C | CN(C/C=C/COCC(=O)O)c1cnc(-c2ccccc2)c(-c2ccccc2)n1 [Example 72, 2-{4-[N-(5,6-diphenylpyrazin-2-yl)-N-methylamino]-(E)-2-buten-1-yloxy]acetic acid] | – | –
– | CN(CCCCOCC(=O)O)c1ncc(-c2ccccc2)c(-c2ccccc2)n1 [Example 74, 2-{4-[N-(4,5-diphenylpyrimidin-2-yl)-N-methylamino]butyloxy}acetic acid] | 800 | –
– | Cc1ccc(-c2cnc(N(C)CCCCOCC(=O)O)nc2-c2ccc(C)cc2)cc1 [Example 75, 2-{4-[N-(4,5-di-p-tolylpyrimidin-2-yl)-N-methylamino]butyloxy}acetic acid] | 200 | –
86 to 88 °C | O=C(O)COCCCCSc1cnc(-c2ccccc2)c(-c2ccccc2)n1 [Example 76, 2-{4-[(5,6-diphenylpyrazin-2-yl)thio]butyloxy}acetic acid] | – | –
212 to 213 °C | CN(CC1CCc2c(cccc2OCC(=O)O)C1)c1cnc(-c2ccccc2)c(-c2ccccc2)n1 (centres unmarked) [Example 77, 5-(carboxymethoxy)-2-{[N-(5,6-diphenylpyrazin-2-yl)-N-methylamino]methyl}-1,2,3,4-tetrahydronaphthalene] | – | –
– | CC(C)N(CCCCSCC(=O)O)c1cnc(-c2ccccc2)c(-c2ccccc2)n1 [Example 78, 2-{4-[N-(5,6-diphenylpyrazin-2-yl)-N-isopropylamino]butylthio]acetic acid sodium salt] | 300 | –
117 to 120 °C (dec.) | CC(C)N(CCCC[S+]([O-])CC(=O)O)c1cnc(-c2ccccc2)c(-c2ccccc2)n1 (centres unmarked) [Example 79, 2-{4-[N-(5,6-diphenylpyrazin-2-yl)-N-isopropylamino]butylsulfinyl}acetic acid] | – | –
183 to 185 °C | CC(C)N(CCCCS(=O)(=O)CC(=O)O)c1cnc(-c2ccccc2)c(-c2ccccc2)n1 [Example 80, 2-{4-[N-(5,6-diphenylpyrazin-2-yl)-N-isopropylamino]butylsulfonyl}acetic acid] | – | –
123 to 125 °C | O=C(O)COCCCCS(=O)(=O)c1cnc(-c2ccccc2)c(-c2ccccc2)n1 [Example 82, 2-[4-(5,6-diphenylpyrazin-2-sulfonyl)butyloxy]acetic acid] | – | –
– | CC(C)N(CCCCOCC(=O)NS(C)(=O)=O)c1cnc(-c2ccccc2)c(-c2ccccc2)n1 [Example 84, 2-{4-[N-(5,6-diphenylpyrazin-2-yl)-N-isopropylamino]butyloxy}-N-(methylsulfonyl)acetamide] | – | inhibition at 0.3 mg/kg ([3]; 2 h after administration): 28%; inhibition at 0.3 mg/kg ([3]; 4 h after administration): 34%; inhibition at 0.3 mg/kg ([3]; 8 h after administration): 19%; inhibition at 1 mg/kg ([3]; 2 h after administration): 63%; inhibition at 1 mg/kg ([3]; 4 h after administration): 40%; inhibition at 1 mg/kg ([3]; 8 h after administration): 52%; ex vivo platelet aggregation inhibition (in words) ([3]; oral 0.3 or 1 mg/kg, 2 to 8 hours after administration): inhibits platelet aggregation persistently in a dose-dependent manner

SMILES | melting point | IC50 [1] [nM] | other results
Cc1ccc(-c2nnc(N(CCCCOCC(=O)O)C(C)C)nc2-c2ccc(C)cc2)cc1 [Example 48, 2-{4-[N-(5,6-di-p-tolyl-1,2,4-triazin-3-yl)-N-isopropylamino]butyloxy}acetic acid] | 119 to 121 °C | 400 | –
CN(CCCCOCC(=O)O)c1c[n+]([O-])c(-c2ccccc2)c(-c2ccccc2)n1 [Example 73, 2,3-diphenyl-5-{N-[4-(carboxymethoxy)butyl]-N-methylamino}pyrazine 1-oxide] | 185 to 190 °C | 200 | –
